Common to all, as to type: in vivo, human
Experiment [1] relates to patients with a characterised depressive state. Put plainly: pilot study of sleep polysomnographic parameters in 15 patients. As to conditions: agomelatine 25 mg; polysomnography. As for the experimental part: Lastly, effects of agomelatine on the sleep polysomnographic parameters were evaluated in a pilot study carried out in 15 patients with a characterised depressive state. […] Furthermore, agomelatine increase the total duration of sleep, reduce the number of nocturnal wakenings, and as a consequence improve sleep efficacy.

Experiment [2] has the same test system. Put plainly: double-blind clinical study over 6 weeks compared with venlafaxine (Hamilton Scale of Depression, Leeds Sleep Evaluation Questionnaire). As for the experimental part:
Another study evaluating sleep improvement was carried out in patients with a characterised depressive state as a double blind over 6 weeks compared with venlafaxine. After one week placebo, 332 patients were randomised: 165 received 25 mg/day of agomelatine and 167 received 75 mg/day of venlafaxine for 2 weeks. After 2 weeks of treatment, if clinical improvements obtained were found insufficient, the doses for some patients were doubled to 50 mg/day of agomelatine or 150 mg/day of venlafaxine for the following weeks.

Experiment [3] has as its system sleep disorders in the depressed patient. Briefly: double-blind clinical study over 6 weeks in comparison with mirtazapine, polysomnographic recording of sleep. As to conditions: 6 weeks of treatment. From the text: The action specific to agomelatine on sleep disorders in the depressed patient is established in comparison with mirtazapine. This study, carried out as a double-blind over 6 weeks of treatment, has, as its principal criterion of efficacy, the polysomnographic recording of sleep. The Hamilton Scale of Depression allows the antidepressant efficacy to be documented.

Where [4] appears, read: versus venlafaxine, p less than or equal to 0.001.

Results on 1 compound are retold here after patent publication US20070060655A1, “Use of agomelatine in obtaining medicaments intended for the treatment of sleep disorders in the depressed patient” (LES LABORATOIRES SERVIER, priority 2005, published 2007).

Consider `COc1ccc2cccc(CCNC(C)=O)c2c1` [agomelatine, N-[2-(7-methoxy-1-naphthyl)ethyl]acetamide], for which, in experiment [1], the “REM (rapid eye movements) sleep” value is on record as “without alteration”; the “absolute and relative durations of cycles 3 and 4 of the recording of the electroencephalographic activity” value was “significantly improved”; the “number of nocturnal wakenings” value is “reduce”; the “onset of the beneficial effects on sleep” value is recorded as “from the first week of treatment”. In experiment [1], the sleep efficacy entry is recorded as “improve”, the sleep physiological structure entry is “Restoration of the sleep physiological structure was observed” and the “total duration of sleep” value is given as “increase”. For the same compound, the “antidepressant efficacy (Hamilton Scale of Depression)” value in experiment [2] (agomelatine 25 mg/day (up to 50 mg/day) versus venlafaxine 75 mg/day (up to 150 mg/day), 6 weeks) is “comparable efficacy of agomelatine versus venlafaxine”. Also, in experiment [2] (setting [4]), the “"sensation of well-being"” value is reported as “equally significant improvement” and the “"sleepiness during the day"” value is “equally significant improvement”. Also, the “LSEQ item "quality of sleep" (QOS)” value in experiment [2] (versus venlafaxine, p=0.015) is given as “appreciably greater efficacy”. In experiment [2] (versus venlafaxine, significant difference from the first week (p=0.007), continuing during the 6 weeks), the “LSEQ item "ease of getting to sleep" (GTS)” value is “more important and faster to appear than for venlafaxine”. Moreover, the “efficacy in the treatment of sleep disorders in the depressed patient (polysomnographic recording of sleep)” value in experiment [3] was “especially effective”.
